Test [1] deals with ADSCs. Nature of the test: Analysis of proliferation rate (Ki67 staining). It is filed as cell-based, human. On the procedure: Four portions of equal volume of the above culture medium containing the sub-cultured ADSCs were separately handled by adding thereinto H2O2 (purchased from Sigma-Aldrich) at a final concentration of 100 μM and reacting for 2 hours to induce senescence of the ADSCs, replacing the culture medium with a fresh culture medium, adding thereinto TC (trans-cinnamaldehyde, purchased from Sigma-Aldrich) at a final concentration of 0, 2, 4 or 6 μM and reacting for 6 hours, so as to obtain “H2O2 group (i.e., treated with H2O2 for 2 hours, but not treated with TC),” “H2O2+TC2 group (i.e., treated with H2O2 for 2 hours and then treated with 2 μM of TC for 6 hours),” “H2O2+TC4 group (i.e., treated with H2O2 for 2 hours and then treated with 4 μM of TC for 6 hours),” and “H2O2+TC6 group (i.e., treated with H2O2 for 2 hours and then treated with 6 μM of TC for 6 hours)” ADSCs. Samples of the “untreated group,” “H2O2 group,” and “H2O2+TC6 group” ADSCs obtained from Example 1 (1) were washed with phosphate buffered saline (PBS) twice, fixed with 3.7% formaldehyde, and blocked with 10% FBS (diluted in PBS). Then, the cells of each sample were washed with PBS once, and reacted with a Ki67 antibody (purchased from Novus biological) at 4° C. overnight. […]

The subject of test [2] is SIRT1 gene. The test is described as follows: Quantitative RT-PCR of SIRT1 gene in hBMMSCs. Format: cell-based, human. On the procedure: Three portions of equal volume of the above culture medium containing the sub-cultured hBMMSCs were provided. The first and second portions were handled by adding thereinto H2O2 at a final concentration of 100 μM, reacting for 2 hours to induce senescence of the hBMMSCs, replacing the culture medium with a fresh culture medium, adding thereinto TC at final concentrations of 0 and 6 μM respectively, and reacting for 6 hours to obtain “H2O2 group (i.e., treated with H2O2 for 2 hours, but not treated with TC)” and “H2O2+TC6 group (i.e., treated with H2O2 for 2 hours and then treated with 6 μM of TC for 6 hours) hBMMSCs. The third portion without any treatment was referred to as “untreated group” hBMMSCs. […]
(§1) Each of the cDNA of ADSCs of different groups from Experiment (3-1) was handled as follows. […] The mixture was then placed in a real-time quantitative PCR machine (ABI prism 7700 sequence detection system) to perform a reaction for quantifying the gene expression levels. […]
(§2) The steps as shown in Experiment (3-2) were repeated, but the cDNA was substituted with the cDNA of the BMMSCs or WJSCs from Experiment (3-1) to conduct quantitative RT-PCR.

Test [3] concerns SIRT1 gene. The test is described as follows: Quantitative RT-PCR of SIRT1 gene in WJSCs. It is filed as cell-based. On the procedure: Three portions of equal volume of the above culture medium containing the sub-cultured WJSCs were provided. The first and second portions were handled by adding thereinto H2O2 at a final concentration of 100 μM, reacting for 2 hours to induce senescence of the WJSCs, replacing the culture medium with a fresh culture medium, adding thereinto TC at final concentrations of 0 and 6 μM, respectively, and reacting for 6 hours to obtain “H2O2 group (i.e., treated with H2O2 for 2 hours, but not treated with TC)” and “H2O2+TC6 group (i.e., treated with H2O2 for 2 hours and then treated with 6 μM of TC for 6 hours) WJSCs. The third portion without any treatment was referred to as “untreated group” WJSCs. […]
as §1, §2

Where [4] appears, read: H2O2 group compared to untreated group.
Where [5] appears, read: H2O2+TC6 group compared to H2O2 group.

Regarding `OO` [H2O2, reference compound], in test [1] (H2O2 group ADSCs (100 μM 2 h), compared to untreated group), the “number of the Ki67-positive cells” value is reported as “significantly reduced”. Also, the “expression level of SIRT1 gene in hBMMSCs” value in test [2] (setting [4]) was “significantly reduced”. The “expression level of SIRT1 gene in WJSCs” value in test [3] (setting [4]) is “significantly reduced”.
On to `O=C/C=C/c1ccccc1` [TC, trans-cinnamaldehyde], for which the “number of the Ki67-positive cells” value in test [1] (H2O2+TC6 group ADSCs (6 μM TC 6 h after H2O2)) is listed as “increased to be similar to that in “untreated group””. Also, in test [2] (setting [5]), the “expression level of SIRT1 gene in hBMMSCs” value is “significantly increased”. The “expression level of SIRT1 gene in WJSCs” value in test [3] (setting [5]) was “significantly increased”.

The record behind these values is patent publication US11020358B2, “Method for the anti-senescence of and/or rejuvenating stem cells” (GWO XI STEM CELL APPLIED TECHNOLOGY CO., LTD., priority 2014, dated 2021).
